We go through two substances from patent publication US20100255580A1, “Differentiation of Human Embryonic Stem Cells” (LIFESCCAN, INC., priority 2007, published 2010).

The test system of assay [1] is human embryonic stem cell line H1. Kind of assay: FACS analysis of protein expression following activin A treatment, H1. Format: cell-based. To be noted: 5-day AA treatment. An excerpt:
(§1) The level of expression of definitive endoderm markers was examined by PCR (FIG. 1), FACS (results summarized in Table II), and immunohistochemistry (FIG. 2).
CXCR4 positive cells were also highly positive for C-kit, EPCAM, CD99, and negative for CD9. The expression pattern for these markers was consistent among all three hES cell lines examined (Table IIB for H7 and Table IIC for H1). […] In parallel, almost 100% of the differentiated cells were […] (FIG. 2).
(§2) Adhered cells were removed from culture plates by five-minute incubation with TrypLE™ Express solution (Invitrogen, CA). Released cells were resuspended in human embryonic stem cell culture medium and recovered by centrifugation, followed by washing and resuspending the cells in a staining buffer consisting of 2% BSA, 0.05% sodium azide in PBS (Sigma, MO). As appropriate, the cells were Fc-receptor blocked for 15 minutes using a 0.1% γ-globulin (Sigma) solution. […] Controls included appropriate isotype matched antibodies, unstained cells, and cells stained only with secondary conjugated antibody. All incubations with antibodies were performed for 30 mins at 4° C. after which the cells were washed with the staining buffer. Samples that were stained with unconjugated primary antibodies were incubated for an additional 30 mins at 4° C. with secondary conjugated PE or -APC labeled antibodies. See Table I for a list of secondary antibodies used. Washed cells were pelleted and resuspended in the staining buffer, and the cell surface molecules were identified using a FACS Array (BD Biosciences) instrument, collecting at least 10,000 events.

The test system of assay [2] is human embryonic stem cell line H9. As to the kind of experiment: Real-time PCR of marker gene expression, H9 on MEF (Examples 2-7). Format: cell-based. As to the method:
(§3) Cells were harvested at the time points indicated in FIG. 3 and assayed by PCR for the expression of genes shown (FIGS. 3, 4 and 5).
After this time interval, the cells were then treated for six days with combinations of retinoic acid and FGF as outlined in Example 2, then the culture medium was removed and replaced with medium comprising DMEM/F12 with 2% FBS, containing the γ-secretase inhibitors L-685,458 at 10 μM for three days.
Cells were continuously cultured for another 3 to 5 days in basal medium with retinoic acid at 1 μM, alone or with bFGF. RNA samples were harvested from cells at various time points along this process to help evaluate the directed differentiation of the cells. Furthermore, culture medium and factors were regularly removed and replenished throughout the differentiation protocol.
RNA extraction, purification, and cDNA synthesis. RNA samples were purified by binding to a silica-gel membrane (Rneasy Mini Kit, Qiagen, CA) in the presence of an ethanol-containing, high-salt buffer followed by washing to remove contaminants. The RNA was further purified using a TURBO DNA-free kit (Ambion, INC), and high-quality RNA was then eluted in water. Yield and purity were assessed by A260 and A280 readings on a spectrophotometer. cDNA copies were made from purified RNA using an ABI (ABI, CA) high capacity cDNA archive kit.
(§4) Real-time PCR amplification and quantitative analysis.
(§5) Final data were expressed relative to a calibrator sample.
For orientation: Real-time PCR tracks product formation cycle by cycle.

The test system is the same in assay [3]. Kind of assay: Immunocytochemistry of endoderm markers, H9. Format: cell-based. To be noted: activin A for five days.
From the text: as §1, §3

A further assay deals with H9P44 cells. Kind of assay: RT-PCR of definitive endoderm markers, growth factor combinations in low serum on MEFs (Example 22). Format: cell-based, human. The following applies: H9P44 on MEF; Day 3; normalized to Group 1 (control). As for the experimental part:
as §4, §5
H9P44 cells were plated onto 6 well plates previously coated with mitomycin treated mouse embryonic fibroblasts (MEF). Cells were grown until 70 to 80% confluency in ES cell medium consisting of DMEM/F12 (Invitrogen/GIBCO) supplemented with 20% knockout serum replacement, 100 nM MEM nonessential amino acids, 0.5 mM beta-mercaptoethanol, 2 mM L-glutamine (all from Invitrogen/GIBCO) and 8 ng/ml human basic fibroblast growth factor (bFGF) (R&D Systems).
Growth factors were added to increasing concentration of FBS in a stepwise manner as indicated in the following regimen: • Day 0: 0% FBS in DMEM/F12 • Day 1: 0.5% FBS in DMEM/F12 • Day 2: 2% FBS in DMEM/F12. • Day 3: Cells were harvested for FACS analysis and RT-PCR.
All growth factors were purchased from R&D Systems, MN. A detailed description and concentration of growth factors for each treatment group is shown below.
For RT-PCR analysis, cells were analyzed for expression of selected panel of definitive endoderm markers.

Assay [4] relates to human embryonic stem cell line H9. As to the kind of experiment: FACS analysis of protein expression following activin A treatment, H9 on MEF. Format: cell-based. To be noted: for CD9 protein expression (FACS) / CXCR4 protein expression (FACS) / ECAM protein expression (FACS) / NCAM protein expression (FACS) / SSEA-3 protein expression (FACS): activin A 100 ng/ml. As to the method:
as §1, §2

The subject of the next assay is H9 embryonic stem cells. Kind of assay: Immunofluorescence staining of DE markers +/- Wnt-3a (Example 27). Format: cell-based, human. The following applies: 20 ng/ml Wnt-3a; Day 5 DE cultures. An excerpt:
Day 5 DE cultures of H9 cells were stained according to Example 10 for SOX-17, HNF-3B, GATA-4, N-cadherin, and E-cadherin. All nuclei were counter stained with DAPI.

For the substance “Activin A: a member of the TGFβ superfamily; R&D Systems; Group 2 = Activin A (100 ng/ml)”, in assay [1], the “CXCR4+” value is on record as 92.78%, the “CXCR4+/C-kit+” value is on record as 92.90%, the “CXCR4+/CD9+” value stood at 7.03% and the “CXCR4+/CD99+” value amounted to 88.78%. Besides, the “CXCR4+/EPCAM” value in assay [1] is on record as 87.99%. For the same substance, the “increase of Nkx2.2 expression compared to samples without activin A” value in assay [2] (50 ng/ml activin A with 50 ng/ml basic FGF and 1 μM Retinoic Acid) is “about 35 fold”. The Pdx1 gene expression result in assay [2] (Activin A 100 ng/ml up to seven days, 0% to 2% serum) is “no Pdx1 gene expression was observed”. Also, in assay [2] (H9, activin A 100 ng/ml), the “expression of Brachyury” value is “decreased” and the “expression of the neuronal marker Zic1” value is given as “no effect”. In addition, in assay [2] (H9, activin A 100 ng/ml, one to seven days), the “expression of the extraembryonic endoderm markers Sox7 and AFP” value is “time-dependent decrease”. The “anterior endoderm markers, Cerberus, Otx-1 and Hex genes” value in assay [2] (H9, activin A 100 ng/ml, three and five days) is on record as “significant up regulation”. Further, in assay [2] (H9 line, activin A 100 ng/ml, two, five and eight days), the “expression of CXCR4, GATA4, HNF-3beta, Mix11 and Sox-17 mRNA” value is reported as “time-dependent increase”. In addition, the “expression of Ngn3 or Insulin” value in assay [2] (activin A alone or in combination with retinoic acid and FGFs) is on record as “did not induce”. Also, the “expression of Pdx1” value in assay [2] (activin A or retinoic acid alone) was “did not induce”. In assay [3], the “cells positive for Sox17 and HNF-3beta (immunocytochemistry)” value was 30-40%; the “differentiated cells still Oct4 positive (immunocytochemistry)” value is about 100%. For the same substance, in the assay on H9P44 cells, the CXCR4 relative expression worked out at 19.5, the Goosecoid relative expression worked out at 2.8, the HNF-3B relative expression is recorded as 0.64 and the Oct-4 relative expression is recorded as 1.1. In addition, in the assay with H9P44 cells, the SOX-2 relative expression came out at 0.91 and the Sox17 relative expression turned out to be 45. In addition, in assay [4] (2-DAY), the “CD9 protein expression (FACS)” value turned out to be 29.42%, the “CXCR4 protein expression (FACS)” value came out at 20.2%, the “ECAM protein expression (FACS)” value was determined as 20.87% and the “NCAM protein expression (FACS)” value was 5.04%. For the same substance, in assay [4] (2-DAY), the “SSEA-3 protein expression (FACS)” value was determined as 92.14%. Also, in assay [4] (5-DAY), the “CD9 protein expression (FACS)” value worked out at 7.27%, the “CXCR4 protein expression (FACS)” value is listed as 55.26%, the “ECAM protein expression (FACS)” value is listed as 14.17% and the “NCAM protein expression (FACS)” value turned out to be 21.1%. In addition, the “SSEA-3 protein expression (FACS)” value in assay [4] (5-DAY) came out at 42.9%. Moreover, in assay [4] (8-DAY), the “CD9 protein expression (FACS)” value is recorded as 4.1%, the “CXCR4 protein expression (FACS)” value is 56.92%, the “ECAM protein expression (FACS)” value was 1.02% and the “NCAM protein expression (FACS)” value is recorded as 8.86%. The “SSEA-3 protein expression (FACS)” value in assay [4] (8-DAY) is listed as 22.05%. Moreover, in assay [4] (following activin A treatment), the “expression of E-cadherin and N-cadherin (FACS)” value is “did not change”.

With Wnt-3a, in the assay on H9 embryonic stem cells, the “expression of N-cadherin” value is “enhanced expression”; the expression of e-cadherin entry is given as “significant loss”; the “nuclei stained positive for SOX-17, HNF-3beta. and GATA-4” value is “significantly larger number”.
